Test results from US9505763B2, “Cancer treatment using BMP inhibitor” (Vanderbilt University, priority 2011, dated 2016).
Entries after “also recorded” stand apart in the source; their conditions may differ.

Columns and labels:
TGFβ receptor alk5 = target: T1, TGFβ receptor alk5 (Homo sapiens, UniProt P36897); details: compared with Dorsomorphin and LDN; cited from earlier work
T1 sequence (P36897 34-503): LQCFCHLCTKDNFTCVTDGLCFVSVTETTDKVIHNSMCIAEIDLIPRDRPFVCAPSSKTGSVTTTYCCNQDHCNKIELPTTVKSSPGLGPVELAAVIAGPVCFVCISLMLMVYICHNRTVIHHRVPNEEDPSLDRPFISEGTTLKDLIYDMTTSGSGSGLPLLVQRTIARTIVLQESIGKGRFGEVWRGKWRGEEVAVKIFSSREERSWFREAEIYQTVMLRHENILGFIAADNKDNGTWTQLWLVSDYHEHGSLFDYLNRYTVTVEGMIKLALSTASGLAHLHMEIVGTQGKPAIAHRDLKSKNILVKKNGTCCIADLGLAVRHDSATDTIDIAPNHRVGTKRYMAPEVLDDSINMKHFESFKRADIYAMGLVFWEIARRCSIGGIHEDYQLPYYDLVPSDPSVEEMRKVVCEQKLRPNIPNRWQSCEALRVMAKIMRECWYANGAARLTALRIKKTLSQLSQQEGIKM

A549 cells = assay: Cell counts after 7 days; format: cell-based; details: DMEM 5% FCS, 10 μM Dorsomorphin or 1 μM DMH1, DMH2, LDN
Description: (§1) Cell Counts. A549 and H1299 cells were plated into 6 well plates with 100,000 cells per well. Cells were treated with DMSO or a BMP receptor antagonist for 7 days. The cells were detached with trypsin, stained with trypan blue, and the number of live cells counted using a hemacytometer.

H1299 cells [1] = assay: Cell counts after 7 days; format: cell-based
Description: as §1

H1299 cells [2] = assay: BrdU incorporation assay; format: cell-based; details: 1 μM or 5 μM
Description: BrdU Assay. Thirty-thousand H1299 cells were plated into 96 well plates. The next day the cells were treated with 1 μM DMSO, 5 μM DMSO, 1 μM DMH2, or 5 μM DMH2 for 24 and 48 hours. BrdU incorporation was measured using the Cell Proliferation ELISA, BrdU colorimetric kit as per manufacture's instruction (Roche, Indianapolis, […]). Cells were incubated with BrdU labeling solution for 2 hours, fixed/denatured, and BrdU located with a peroxidase-conjugated anti-BrdU antibody. Knockdown of all type I BMP receptors were performed in the H1299 cells by transfecting siRNA for alk2, alk3, and alk6 or control siRNA. Three days after transfection BrdU incorporation was determined. Studies were performed 4 times in triplicate.

alk2 = target: T2, alk2 (Mus musculus, UniProt P37172); details: reported [26]; cited from earlier work
T2 construct: host or cells: C2C12
T2 sequence (P37172 21-509): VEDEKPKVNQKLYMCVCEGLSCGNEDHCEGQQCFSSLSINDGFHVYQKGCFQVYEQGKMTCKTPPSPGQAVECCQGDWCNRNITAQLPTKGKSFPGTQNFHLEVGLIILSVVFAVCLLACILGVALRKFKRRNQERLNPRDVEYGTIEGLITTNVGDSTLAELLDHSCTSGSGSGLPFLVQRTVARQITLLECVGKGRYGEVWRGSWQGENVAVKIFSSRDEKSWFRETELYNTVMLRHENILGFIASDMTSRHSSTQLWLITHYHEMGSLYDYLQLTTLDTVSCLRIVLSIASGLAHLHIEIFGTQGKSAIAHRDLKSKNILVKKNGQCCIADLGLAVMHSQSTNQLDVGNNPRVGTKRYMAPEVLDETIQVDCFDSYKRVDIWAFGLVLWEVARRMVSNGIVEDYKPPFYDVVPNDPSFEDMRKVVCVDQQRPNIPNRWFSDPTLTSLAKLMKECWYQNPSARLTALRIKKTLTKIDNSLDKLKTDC

[3] = tested on: constitutively active alk6 (ca-alk6); assay: BRE-luciferase with constitutively active alk6 in H1299 cells; format: cell-based; details: 1 μM antagonist
Description: To assess the effects of antagonists on a specific type I BMP receptor, 2 μg of constitutively active ca-alk3 and ca-alk6 expression vectors were co-transfected with the BRE-luciferase reporter into H1299 cells with Nucleofector II. Control cells were co-transfected with the pcDNA3 expression vector. After 48 hours the cells were treated with DMSO or a BMP receptor antagonist for 48 hours and luminescence was measured.

[4] = tested on: phosphorylated Smad 1/5/8; assay: Western blot for phosphorylated Smad 1/5/8; format: cell-based
Description: (§2) Western Blot Analysis. Total cellular protein was prepared using RIPA buffer containing a protease inhibitor cocktail and protein concentration was measured using the BCA assay as described. In brief, protein was analyzed by SDS-PAGE, transferred to nitrocellulose (Schleicher and Schuell, Keene, N.H.). After blocking, the blots were incubated overnight at 4° C. with the appropriate primary antibody in Tris-buffered saline with 1% Tween (TBST) and 5% non-fat milk. Secondary antibodies were applied for 1 hour at room temperature. Specific proteins were detected using the enhanced chemiluminescence system (Amersham, Arlington Heights, Ill.). The primary antibodies that were used were rabbit monoclonal anti-pSmad 1/5/8 (Cell signaling Technology, Danvers Mass.) rabbit anti-actin, an affinity isolated antigen specific antibody (Sigma, Saint Louis, Mo.), rabbit monoclonal anti-Id1 and rabbit monoclonal anti-Id3 (Calbioreagents, San Mateo, Calif.).

H1299 cells [5] = assay: Trypan blue cell death counts; format: cell-based; details: 4 days
Id1 and Id3 protein = assay: Western blot for Id1 and Id3; format: cell-based
Description: as §2

VEGF II = VEGF II (Homo sapiens, UniProt P35968); details: compared with Dorsomorphin and LDN; cited from earlier work
Sequence of VEGF II (P35968 20-1356): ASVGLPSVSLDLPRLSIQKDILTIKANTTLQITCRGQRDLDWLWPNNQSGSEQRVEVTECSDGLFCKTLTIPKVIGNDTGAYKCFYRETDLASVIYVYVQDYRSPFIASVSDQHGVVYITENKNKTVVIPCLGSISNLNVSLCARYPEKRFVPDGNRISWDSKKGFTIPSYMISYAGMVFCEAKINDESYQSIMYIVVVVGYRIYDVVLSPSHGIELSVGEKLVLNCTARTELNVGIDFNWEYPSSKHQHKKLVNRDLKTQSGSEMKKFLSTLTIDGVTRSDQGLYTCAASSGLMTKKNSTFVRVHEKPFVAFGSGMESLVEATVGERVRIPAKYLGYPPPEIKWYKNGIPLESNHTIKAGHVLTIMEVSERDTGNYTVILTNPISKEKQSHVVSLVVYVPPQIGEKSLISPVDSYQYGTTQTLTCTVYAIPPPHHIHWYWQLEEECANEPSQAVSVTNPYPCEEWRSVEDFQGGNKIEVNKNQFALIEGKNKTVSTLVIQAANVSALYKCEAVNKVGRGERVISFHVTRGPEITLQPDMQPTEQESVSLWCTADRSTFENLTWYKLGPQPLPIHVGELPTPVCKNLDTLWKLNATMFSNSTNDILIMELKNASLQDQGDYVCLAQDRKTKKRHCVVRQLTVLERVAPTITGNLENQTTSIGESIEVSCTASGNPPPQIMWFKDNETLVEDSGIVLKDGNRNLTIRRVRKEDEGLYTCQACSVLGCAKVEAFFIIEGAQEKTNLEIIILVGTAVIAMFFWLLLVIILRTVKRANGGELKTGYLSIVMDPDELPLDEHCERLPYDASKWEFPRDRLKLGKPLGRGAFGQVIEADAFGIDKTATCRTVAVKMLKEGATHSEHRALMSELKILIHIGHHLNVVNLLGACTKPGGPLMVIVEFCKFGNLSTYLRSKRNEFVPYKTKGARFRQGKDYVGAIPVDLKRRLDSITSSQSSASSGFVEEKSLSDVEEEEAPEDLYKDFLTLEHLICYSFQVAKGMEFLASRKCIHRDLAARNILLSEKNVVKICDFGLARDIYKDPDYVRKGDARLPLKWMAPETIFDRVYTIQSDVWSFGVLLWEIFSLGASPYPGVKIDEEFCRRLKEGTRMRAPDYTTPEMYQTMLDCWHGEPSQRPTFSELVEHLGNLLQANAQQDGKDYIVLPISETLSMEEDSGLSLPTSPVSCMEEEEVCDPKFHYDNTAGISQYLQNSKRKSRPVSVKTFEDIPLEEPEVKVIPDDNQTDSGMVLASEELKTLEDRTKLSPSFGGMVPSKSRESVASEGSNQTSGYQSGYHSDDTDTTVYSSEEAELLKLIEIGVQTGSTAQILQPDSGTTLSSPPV

AMP kinase = details: compared with Dorsomorphin and LDN; cited from earlier work

Compound: CN(C)CCCOc1ccc(-c2cnc3c(-c4ccnc5ccccc45)cnn3c2)cc1 [DMH2]
- activity for TGFβ receptor alk5 (comparison) (TGFβ receptor alk5): less activity
- cell growth (number of cells) (A549 cells): significantly more growth inhibition than DMH1
- cell growth (number of cells) (H1299 cells [1]; H1299, DMEM 5% FCS, 10 μM Dorsomorphin or 1 μM DMH1, DMH2, LDN): significantly more growth inhibition than DMH1
- cell growth (number of cells) (H1299 cells [1]; H1299 cultured in SFM, 1 μM): significant inhibition of cell growth
- proliferation (BrdU incorporation) (H1299 cells [2]; 24 hours): dose dependent decrease in proliferation
- proliferation (BrdU incorporation) (H1299 cells [2]; 48 hours): more profound effect
- inhibition of alk2 activity (alk2): inhibit
- inhibition of ca-alk6 activity (BRE-luciferase) [3]: more inhibition of alk6 than DMH1 and LDN
- phosphorylated Smad 1/5/8 expression ([4]; A549 cells): decreases
- level of phosphorylated Smad 1/5/8 expression ([4]; lung cancer cell lines (H1299, A549)): decreased
- percentage of dead cells (trypan blue) (H1299 cells [5]; H1299 cultured in SFM, 1 μM, compared with DMEM 5% FCS): even higher
- cell death (percentage of dead cells, trypan blue) (H1299 cells [5]; H1299 in DMEM 5% FCS, 1 μM and 5 μM): significant increased in cell death, which was dose dependent
- protein levels of Id1 and Id3 (Id1 and Id3 protein; A549 and H1299 cells): decrease
- reduction of Id1 protein expression (comparison) (Id1 and Id3 protein; H1299 and A549 cells, 1 μM): greater reduction of Id1 in H1299 cells compared to A549 cells; also recorded: greater reduction of Id1 protein expression than DMH1
- activity for VEGF II (comparison) (VEGF II): less activity
- activity for AMP kinase (comparison) (AMP kinase): less activity
